Test results as given in patent US8343930B2, “Combination therapy for the treatment of tumors” (Cancer Advances, Inc., priority 2001, dated 2013).

Tests used:
[1] = tested on: a number of cell lines; conditions: Seva et al., 1990; Watson et al., 1991a; cited from earlier work
[2] = tested on: gastrin-sensitive mouse colon tumor MC26; conditions: MC26-bearing mice; control animals 25 days; cited from earlier work
[3] = tested on: advanced colorectal cancer; conditions: advanced disease (Petrioli et al., 1995); cited from earlier work
[4] = tested on: rat colon tumor DHDK12; assay: In vivo growth of DHDK12 tumors in abdominal wall muscle layer of BDIX rats; conditions: immunization alone (200 μg/ml), 50 day time period; untreated 4.43 g
Procedure: Cell line. DHDK12 is a rat colonic epithelial tumor cell line (Martin, 1983). The cell line was maintained in RPMI 1640 growth medium (Gibco, Paisley, Scotland) containing 10% fetal calf serum (FCS, Sigma, Poole, UK) in humidified conditions at 37° C. and 5% CO2.
Initiation of tumor growth. DHDK12 cells were suspended in sterile phosphate buffered line (PBS, Oxoid, Hants., UK) at a cell concentration of 2.5×10^7/ml. Rats were anesthetized by a 1 ml intraperitoneal injection of Hypnorm ([…] fenatanyl citrate and 10 mg/ml fluanisone; Jannsen, Berrse, Belgium), Hypnovel ([…] midazolam; Roche, Basel, Switzerland), and sterile distilled water in a 1:1:5 ratio. Following a subcutaneous (s.c.) incision on the right flank, a 200 μl volume of cell suspension was injected into the muscle layer of the abdominal wall and the surgical incision closed by wound clips. Each experimental group was composed of between 6 and 13 animals.
The effects of combined therapies with 5-FU/Leucovorin (12.5-30 mg/kg) and rat anti-G17(1-9)-DT (200 μg/ml) on the growth of the rat colon tumor DHDK12 cell line in the muscle layer of the abdominal wall of BDIX rats were tested by comparison to tumors in control animals as described in the previous Examples. At the end of the therapies the rats were killed, their tumors excised and weighed using standard procedures. […]

CCCN(CCC)C(=O)C(CCC(=O)O)NC(=O)c1ccccc1 (centres unmarked) [proglumide]
effect on basal and gastrin-stimulated proliferation [1]: inhibited | survival of treated animals [2]: 39 days

O=c1[nH]cc(F)c(=O)[nH]1 [5-FU, 5-fluorouracil]
median survival [3]: 7.5 months

Diphtheria toxoid [DT]
median tumor weight [4]: 4.7 g

O=C(N[C@@H](Cc1c[nH]c2ccccc12)C(=O)O)c1ccc(Cl)cc1 [Benzotript]
effect on basal and gastrin-stimulated proliferation [1]: inhibited
